Experiments:
Type in all cases: in vivo
[1] = test system: iNOS, iCAM-1, IL-1β, IL-6 expression; experiment: Brain inflammatory gene expression (RT-PCR) after tMCAo in STZ-induced diabetic mice
Procedure: Mice were immediately sacrificed after PbtO2 measurement and brain tissue samples were analyzed for inflammatory gene expression (N=6/gp). RT-PCR primers shown in Table 1 were used to measure changes in expression of iNOS (FIG. 11A), iCAM-1 (FIG. 11B), IL-1(3 (FIG. 11C) and IL-6 (FIG. 11D). The result for each inflammatory gene was normalized to expression of β-actin and expressed as a fold change.

GSNOR = target: T1, GSNOR (Mus musculus, UniProt P28474); experiment: Plasma GSNOR activity (GSNO-dependent NADH consumption) after PT-stroke in aged female mice; conditions: 2.5 mg/kg after PT-stroke, P<0.01
T1 construct: Plasma was isolated from freshly drawn blood after cardiac puncture under deep isoflurane anesthesia; from tissue; host or cells: plasma of aged female C57/B6-background mice after PT-stroke
Procedure: Plasma was isolated from freshly drawn blood after cardiac puncture under deep isoflurane anesthesia, and mice were sacrificed to collect brain tissue. Plasma and brain tissue samples were snap-frozen until assay.
A method of GSNO dependent NADH consumption was used to determine GSNOR activity as reported. Briefly, brain tissue was homogenized in a buffer containing 50mM Tris-HCl (pH 8.0), 150 mM NaCl, 1-mM EDTA, 0.1% Triton X-100 and 1:100 protease inhibitor cocktail and centrifuged (10, 000 g×10 minutes at 4° C.) to obtain supernatant. […] The consumption of NADH was monitored with fluorescence spectrophotometry at an excitation wavelength of 340 nm and emission at 460 nm. GSNOR activity was calculated by subtracting the rate of NADH consumption incubated in the presence of GSNO minus the rate of NADH consumption without GSNO in samples.
A sex difference was found in the basal level of plasma GSNOR activity, showing higher GSNOR activity in female mice compared to age-matched males (P<0.05; N=6/gp) as shown in FIG. 3A. […] Statistical significance was determined at P<0.05 and were indicated with asterisks or different letters indicating statistically different Means.

[2] = test system: tMCAo stroke in STZ-induced diabetic mice; experiment: Reperfused tMCAo stroke model in STZ-induced diabetic male mice, with or without RIC therapy; conditions: for brain tissue oxygenation (PbtO2): 6 h post-reperfusion; for % infarct volume / % swelling / mean NDS: 24 h post-stroke
Source text: The tMCAo surgical procedure is similar to TE-stroke surgery, however, the transient occlusion is achieved using a suture instead of a clot as reported by Hoda et al (supra). Briefly, a 6-0 monofilament suture with ˜3-mm silicone-coated tip designed to induce tMCAo in mice (Doccol Corp, USA) was introduced into the ICA via an ECA stump, directed and gently advanced into the MCA region until the suture was wedged to occlude the proximal stem of MCA. The occlusion was maintained prior to withdrawing the filament after […], the ECA- arteriotomy was ligated and the reperfusion was allowed following suture withdrawal. The sham-operated group underwent similar procedures without occlusion, and mice recovered as above.
TTC is a white powder and the solution remains colorless, which is reduced to red 1,3,5-triphenylformazan (TPF) by the enzymatic action of various dehydrogenases primarily mitochondrial dehydrogenase from the living tissues, while the core remains as white. Therefore, larger white area indicates higher injury and infarction volume. After performing ATT, mice were overdosed and deeply anesthetized with high isofluorane (5%). Brains were very quickly perfused with cold 25 ml of 0.01 M phosphate-buffered saline (PBS), harvested fresh and immediately placed in a metallic mouse brain matrix. Looking at the infarcted area, 5 blades were placed in alternate gaps to cut and obtain […] coronal slices. Sections were individually placed in a 35-mm dish containing pre-warmed (37° C.) 3-ml of 5% TTC in PBS (Sigma) for 20-25 minutes at 37° C., followed by 2× washing with cold PBS and fixation with 10% formalin. In order to image, fixed sections were taken out of the dish and placed in order on a high-resolution Cannon Scanner. After scanning, images were cropped and saved for analysis. Corrected infarct volume was estimated using gray scale image and Scion Image software and presented as the Corrected % infarct volume normalized to the uninjured side.
Diabetes was induced in adult male mice (14±1 weeks of age) as confirmed after 7 days of STZ-injection, followed by tMCAo stroke surgery at 3 weeks post-STZ injection. Stroke was induced with 60-min suture occlusion followed by reperfusion with suture withdrawal. GRI therapy or vehicle was IV-infused 10-min prior to reperfusion and RIC therapy/ RIC-mock was performed 1 h after reperfusion. […] PbtO2 was measured at 6h post-reperfusion (N=6/gp) using a 50-um thick oxygen sensor integrated to an UniAmp multi-channel system (Unisense, Denmark). Measurement signal was averaged for 3 min during a period of stable output as shown in the representative real-time electrogram traces in FIGS. 9A-9D. FIG. 9A is representative of a mouse treated with vehicle and receiving mock RIC. FIG. 9B is representative of a mouse receiving vehicle and RIC therapy. FIG. 9C is representative of a mouse receiving GRI therapy and mock RIC. FIG. 9D is representative of a mouse receiving GRI therapy and RIC therapy.
Diabetic adult male mice (as described in Example 4) were subjected to tMCAo (N=10/gp) with or without GRI and/or RIC-therapies and outcome measures were performed at 24h post-stroke.

[3] = low-dose GRI combined with RIC therapy, vs all other 3 groups

T1 sequence (P28474 whole entry): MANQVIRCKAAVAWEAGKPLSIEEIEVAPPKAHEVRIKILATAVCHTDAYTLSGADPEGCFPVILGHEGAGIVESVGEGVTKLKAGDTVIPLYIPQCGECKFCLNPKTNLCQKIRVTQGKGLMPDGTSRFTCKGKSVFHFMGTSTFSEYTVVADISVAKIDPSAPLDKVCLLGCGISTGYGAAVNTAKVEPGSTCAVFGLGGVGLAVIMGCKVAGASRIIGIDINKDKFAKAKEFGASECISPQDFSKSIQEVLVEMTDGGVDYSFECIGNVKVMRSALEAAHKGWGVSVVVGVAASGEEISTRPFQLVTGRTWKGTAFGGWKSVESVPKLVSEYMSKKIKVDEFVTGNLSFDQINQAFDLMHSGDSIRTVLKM

## Cc1cc(C(N)=O)ccc1-n1c(CCC(=O)O)ccc1-c1ccc(-n2ccnc2)cc1 [GRI therapy, N6022]
[1]; GRI alone vs vehicle-treated stroke group, after PbtO2 measurement at 6 h post-reperfusion
  inflammatory gene expression in brain (fold change, normalized to β-actin): showed a trend only to downregulate most inflammatory genes and were not significantly different from the vehicle-treated stroke group
[1]; GRI prior to RIC therapy vs RIC therapy alone
  inflammatory gene expression in brain (fold change, normalized to β-actin): significantly downregulated and prevented RIC-induced inflammatory responses
GSNOR
  post-stroke plasma GSNOR activity: significantly inhibited the post-stroke plasma GSNOR activity
[2]; GRI IV 10 min prior to reperfusion followed by RIC therapy 1 h after reperfusion
  brain tissue oxygenation (PbtO2): showed enhanced efficacy of both, GRI and RIC-therapies, in improving benefits of reperfusion to increase PbtO2
[2]; GRI alone (RIC-mock), IV 10 min prior to reperfusion, vs vehicle RIC-mock
  brain tissue oxygenation (PbtO2): improved PbtO2 significantly
[2]; GRI singly (RIC-mock), N=10/gp
  % infarct volume: did not improve
  % swelling: did not improve
  mean NDS: did not improve
[2]; [3]
  % infarct volume: significantly improved
  % swelling: significantly improved
  mean NDS: significantly improved
